# Data from ChEMBL document CHEMBL3885881, “DrugMatrix”.
# Species on record: Rattus norvegicus
# Assay: DrugMatrix - Regimen: Daily Repeat
# Type: toxicity, organism-based, Sprague-Dawley
# Design: regimen Daily Repeat, gender Male, age 6-8 weeks
# Settings: in vivo, po, route oral GAVAGE, vehicle .5 % CMC; for ABSOLUTE BASOPHIL / ABSOLUTE EOSINOPHIL / ABSOLUTE LYMPHOCYTE / ABSOLUTE MONOCYTE / ABSOLUTE SEGMENTED NEUTROPHIL / BASOPHIL / EOSINOPHIL / ERYTHROCYTE COUNT / HEMATOCRIT / HEMOGLOBIN / LEUKOCYTE COUNT / LYMPHOCYTE / MEAN CORPUSCULAR HEMOGLOBIN / MEAN CORPUSCULAR HEMOGLOBIN CONCENTRATION / MEAN CORPUSCULAR VOLUME / MONOCYTE / NEUTROPHIL / NUCLEATED RED BLOOD CELLS / PLATELET COUNT: tissue Blood; for ALANINE AMINOTRANSFERASE / ALBUMIN / ALKALINE PHOSPHATASE / ASPARTATE AMINOTRANSFERASE / BLOOD UREA NITROGEN / CARBON DIOXIDE / CHLORIDE / CHOLESTEROL / CREATINE PHOSPHOKINASE / CREATININE / GLUCOSE / LACTATE DEHYDROGENASE / LIPASE / PHOSPHORUS / POTASSIUM / SODIUM / TOTAL BILIRUBIN / TOTAL PROTEIN / URIC ACID: tissue Plasma
# [1] = 0 mg/kg, 72 h, dose level Control, time 3 day
# [2] = 0 mg/kg, 120 h, dose level Control, time 5 day
# [3] = 200 mg/kg, 72 h, dose level Low, time 3 day
smiles,measurement,setting,value
Cc1cnc(C(=O)NCCc2ccc(S(=O)(=O)NC(=O)NC3CCCCC3)cc2)cn1 [GLIPIZIDE],ABSOLUTE BASOPHIL,[1],0 CELLS/uL
same,ABSOLUTE EOSINOPHIL,[1],0 CELLS/uL
same,ABSOLUTE LYMPHOCYTE,[1],12191.17 CELLS/uL
same,ABSOLUTE MONOCYTE,[1],183.17 CELLS/uL
same,ABSOLUTE SEGMENTED NEUTROPHIL,[1],1192.33 CELLS/uL
same,BASOPHIL,[1],0%
same,EOSINOPHIL,[1],0%
same,ERYTHROCYTE COUNT,[1],5.51 x10E6/uL
same,HEMATOCRIT,[1],35.45%
same,HEMOGLOBIN,[1],13.82 G/DL
same,LEUKOCYTE COUNT,[1],13.57 x10E3/uL
same,LYMPHOCYTE,[1],89.83%
same,MEAN CORPUSCULAR HEMOGLOBIN,[1],25.1 pg
same,MEAN CORPUSCULAR HEMOGLOBIN CONCENTRATION,[1],38.98 G/DL
same,MEAN CORPUSCULAR VOLUME,[1],64.42 fL
same,MONOCYTE,[1],1.33%
same,NEUTROPHIL,[1],8.83%
same,NUCLEATED RED BLOOD CELLS,[1],0 /100WBC
same,PLATELET COUNT,[1],1118.17 x10E3/uL
same,ALANINE AMINOTRANSFERASE,[1],55 u/L
same,ALBUMIN,[1],4.15 G/DL
same,ALKALINE PHOSPHATASE,[1],449.5 u/L
same,ASPARTATE AMINOTRANSFERASE,[1],112.83 u/L
same,BLOOD UREA NITROGEN,[1],17.33 mg/dL
same,CARBON DIOXIDE,[1],29.5 mmol/L
same,CHLORIDE,[1],101 MEQ/L
same,CHOLESTEROL,[1],70 mg/dL
same,CREATINE PHOSPHOKINASE,[1],1325.83 u/L
same,CREATININE,[1],0.18 mg/dL
same,GLUCOSE,[1],171.5 mg/dL
same,LACTATE DEHYDROGENASE,[1],386 u/L
same,LIPASE,[1],10 u/L
same,PHOSPHORUS,[1],11.57 mg/dL
same,POTASSIUM,[1],6.21 MEQ/L
same,SODIUM,[1],141.65 MEQ/L
same,TOTAL BILIRUBIN,[1],0.15 mg/dL
same,TOTAL PROTEIN,[1],5.75 G/DL
same,URIC ACID,[1],1.28 mg/dL
same,ABSOLUTE BASOPHIL,[2],0 CELLS/uL
same,ABSOLUTE EOSINOPHIL,[2],138.17 CELLS/uL
same,ABSOLUTE LYMPHOCYTE,[2],13283.17 CELLS/uL
same,ABSOLUTE MONOCYTE,[2],303.83 CELLS/uL
same,ABSOLUTE SEGMENTED NEUTROPHIL,[2],1308.17 CELLS/uL
same,BASOPHIL,[2],0%
same,EOSINOPHIL,[2],1%
same,ERYTHROCYTE COUNT,[2],5.32 x10E6/uL
same,HEMATOCRIT,[2],33.8%
same,HEMOGLOBIN,[2],13.63 G/DL
same,LEUKOCYTE COUNT,[2],15.03 x10E3/uL
same,LYMPHOCYTE,[2],88.33%
same,MEAN CORPUSCULAR HEMOGLOBIN,[2],25.68 pg
same,MEAN CORPUSCULAR HEMOGLOBIN CONCENTRATION,[2],40.35 G/DL
same,MEAN CORPUSCULAR VOLUME,[2],63.67 fL
same,MONOCYTE,[2],1.83%
same,NEUTROPHIL,[2],8.83%
same,NUCLEATED RED BLOOD CELLS,[2],0 /100WBC
same,PLATELET COUNT,[2],1097.5 x10E3/uL
same,ALANINE AMINOTRANSFERASE,[2],54.5 u/L
same,ALBUMIN,[2],4.27 G/DL
same,ALKALINE PHOSPHATASE,[2],337 u/L
same,ASPARTATE AMINOTRANSFERASE,[2],94.67 u/L
same,BLOOD UREA NITROGEN,[2],17 mg/dL
same,CARBON DIOXIDE,[2],28.33 mmol/L
same,CHLORIDE,[2],101.5 MEQ/L
same,CHOLESTEROL,[2],71.33 mg/dL
same,CREATINE PHOSPHOKINASE,[2],628.17 u/L
same,CREATININE,[2],0.19 mg/dL
same,GLUCOSE,[2],177.83 mg/dL
same,LACTATE DEHYDROGENASE,[2],500.5 u/L
same,LIPASE,[2],9.5 u/L
same,PHOSPHORUS,[2],12.3 mg/dL
same,POTASSIUM,[2],5.63 MEQ/L
same,SODIUM,[2],143.03 MEQ/L
same,TOTAL BILIRUBIN,[2],0.2 mg/dL
same,TOTAL PROTEIN,[2],6.02 G/DL
same,URIC ACID,[2],1.5 mg/dL
same,ABSOLUTE BASOPHIL,[3],0 CELLS/uL
same,ABSOLUTE EOSINOPHIL,[3],38 CELLS/uL
same,ABSOLUTE LYMPHOCYTE,[3],11413.33 CELLS/uL
same,ABSOLUTE MONOCYTE,[3],0 CELLS/uL
same,ABSOLUTE SEGMENTED NEUTROPHIL,[3],882 CELLS/uL
same,BASOPHIL,[3],0%
same,EOSINOPHIL,[3],0.33%
same,ERYTHROCYTE COUNT,[3],5.65 x10E6/uL
same,HEMATOCRIT,[3],34.83%
same,HEMOGLOBIN,[3],13.93 G/DL
same,LEUKOCYTE COUNT,[3],12.33 x10E3/uL
same,LYMPHOCYTE,[3],92.67%
same,MEAN CORPUSCULAR HEMOGLOBIN,[3],24.63 pg
same,MEAN CORPUSCULAR HEMOGLOBIN CONCENTRATION,[3],40 G/DL
same,MEAN CORPUSCULAR VOLUME,[3],61.63 fL
same,MONOCYTE,[3],0%
same,NEUTROPHIL,[3],7%
same,NUCLEATED RED BLOOD CELLS,[3],0 /100WBC
same,PLATELET COUNT,[3],1245 x10E3/uL
same,ALANINE AMINOTRANSFERASE,[3],51.33 u/L
same,ALBUMIN,[3],4.23 G/DL
same,ALKALINE PHOSPHATASE,[3],334.33 u/L
same,ASPARTATE AMINOTRANSFERASE,[3],84.33 u/L
same,BLOOD UREA NITROGEN,[3],15.33 mg/dL
same,CARBON DIOXIDE,[3],27.33 mmol/L
same,CHLORIDE,[3],103.33 MEQ/L
same,CHOLESTEROL,[3],74.33 mg/dL
same,CREATINE PHOSPHOKINASE,[3],335 u/L
same,CREATININE,[3],0.13 mg/dL
same,GLUCOSE,[3],133.67 mg/dL
same,LACTATE DEHYDROGENASE,[3],97.33 u/L
same,LIPASE,[3],10.33 u/L
same,PHOSPHORUS,[3],11.7 mg/dL
same,POTASSIUM,[3],5.79 MEQ/L
same,SODIUM,[3],143.47 MEQ/L
same,TOTAL BILIRUBIN,[3],0.13 mg/dL
same,TOTAL PROTEIN,[3],5.77 G/DL
same,URIC ACID,[3],1.43 mg/dL
